Test results reported in PubChem BioAssay AID1963854 (Molecular Pharmacology Branch, DTP, NCI, 2024).

Tested on: 186277-243-T-J2-PDC complex spheroid viability
Experiment: Anticancer human tumor 186277-243-T-J2-PDC patient-derived colon adenocarcinoma cell line growth inhibition [POLQ]
Conditions: for IC50: curve of first compound; for viability, T/C: stronger effect = lower value
How it was run: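 Three-cell-type spheroids modelling solid tumor plus stroma served as the readout system; POL inhibitors were tested individually and in combination, concentration ranges set by clinical Cmax where known.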

[1] = second compound 0.0316 µM, first compound 0.0316 µM
[2] = second compound 0.0316 µM, first compound 0.1 µM
[3] = second compound 0.0316 µM, first compound 0.316 µM
[4] = second compound 0.0316 µM, first compound 1 µM
[5] = second compound 0.0316 µM, first compound 3.16 µM
[6] = second compound 0.0316 µM, first compound 10 µM
[7] = second compound 0.1 µM, first compound 0.0316 µM
[8] = second compound 0.1 µM, first compound 0.1 µM
[9] = second compound 0.1 µM, first compound 0.316 µM
[10] = second compound 0.1 µM, first compound 1 µM
[11] = second compound 0.1 µM, first compound 3.16 µM
[12] = second compound 0.1 µM, first compound 10 µM
[13] = second compound 0.316 µM, first compound 0.0316 µM
[14] = second compound 0.316 µM, first compound 0.1 µM
[15] = second compound 0.316 µM, first compound 0.316 µM
[16] = second compound 0.316 µM, first compound 1 µM
[17] = second compound 0.316 µM, first compound 3.16 µM
[18] = second compound 0.316 µM, first compound 10 µM
[19] = second compound 1 µM, first compound 0.0316 µM
[20] = second compound 1 µM, first compound 0.1 µM
[21] = second compound 1 µM, first compound 0.316 µM
[22] = second compound 1 µM, first compound 1 µM
[23] = second compound 1 µM, first compound 3.16 µM
[24] = second compound 1 µM, first compound 10 µM
[25] = second compound 3.16 µM, first compound 0.0316 µM
[26] = second compound 3.16 µM, first compound 0.1 µM
[27] = second compound 3.16 µM, first compound 0.316 µM
[28] = second compound 3.16 µM, first compound 1 µM
[29] = second compound 3.16 µM, first compound 3.16 µM
[30] = second compound 3.16 µM, first compound 10 µM
[31] = second compound 10 µM, first compound 0.0316 µM
[32] = second compound 10 µM, first compound 0.1 µM
[33] = second compound 10 µM, first compound 0.316 µM
[34] = second compound 10 µM, first compound 1 µM
[35] = second compound 10 µM, first compound 3.16 µM
[36] = second compound 10 µM, first compound 10 µM
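Further: spheroids exposed to compounds for seven days.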
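Wherever viability, T/C is given: 100% = DMSO vehicle control viability.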

SMILES: CC1COCCN1c1cc(-c2ccnn2C)c2ccnc(-c3ccn[nH]3)c2n1 (stereo not drawn) + COC1C(OC(N)=O)C(O)C(Oc2ccc3c(O)c(NC(=O)c4ccc(O)c(CC=C(C)C)c4)c(=O)oc3c2C)OC1(C)C
- IC50 (second compound 0.0316 µM): 0.0426 µM
- IC50 (second compound 0.1 µM): 0.0458 µM
- IC50 (second compound 0.316 µM): 0.0456 µM
- IC50 (second compound 1 µM): 0.0474 µM
- IC50 (second compound 3.16 µM): 0.0428 µM
- IC50 (second compound 10 µM): 0.0512 µM
- viability, T/C [1]: 63.9%
- viability, T/C [2]: 10.3%
- viability, T/C [3]: 4.76%
- viability, T/C [4]: 4.28%
- viability, T/C [5]: 3.3%
- viability, T/C [6]: 3.81%
- viability, T/C [7]: 68.6%
- viability, T/C [8]: 10.9%
- viability, T/C [9]: 4.88%
- viability, T/C [10]: 3.51%
- viability, T/C [11]: 2.82%
- viability, T/C [12]: 3.8%
- viability, T/C [13]: 67.6%
- viability, T/C [14]: 12.2%
- viability, T/C [15]: 4.58%
- viability, T/C [16]: 3.36%
- viability, T/C [17]: 2.79%
- viability, T/C [18]: 3.64%
- viability, T/C [19]: 71%
- viability, T/C [20]: 11.4%
- viability, T/C [21]: 5.31%
- viability, T/C [22]: 3.57%
- viability, T/C [23]: 3.29%
- viability, T/C [24]: 4.22%
- viability, T/C [25]: 63.9%
- viability, T/C [26]: 11.1%
- viability, T/C [27]: 4.98%
- viability, T/C [28]: 3.47%
- viability, T/C [29]: 4.1%
- viability, T/C [30]: 3.47%
- viability, T/C [31]: 77.8%
- viability, T/C [32]: 11.6%
- viability, T/C [33]: 5.41%
- viability, T/C [34]: 3.59%
- viability, T/C [35]: 4.37%
- viability, T/C [36]: 3.76%

SMILES: CCc1cc2c(N3CCc4c(cc(Cn5ccnc5)cc4-c4cn(C)nc4C(F)(F)F)C3=O)ccnc2c(OC)n1 + COC1C(OC(N)=O)C(O)C(Oc2ccc3c(O)c(NC(=O)c4ccc(O)c(CC=C(C)C)c4)c(=O)oc3c2C)OC1(C)C
- IC50 (second compound 0.0316 µM): > 10 µM
- IC50 (second compound 0.1 µM): > 10 µM
- IC50 (second compound 0.316 µM): > 10 µM
- IC50 (second compound 1 µM): > 10 µM
- IC50 (second compound 3.16 µM): > 10 µM
- IC50 (second compound 10 µM): > 10 µM
- viability, T/C [1]: 94.6%
- viability, T/C [2]: 94%
- viability, T/C [3]: 116%
- viability, T/C [4]: 87.8%
- viability, T/C [5]: 92.6%
- viability, T/C [6]: 74.9%
- viability, T/C [7]: 97.5%
- viability, T/C [8]: 95.2%
- viability, T/C [9]: 111%
- viability, T/C [10]: 104%
- viability, T/C [11]: 86%
- viability, T/C [12]: 74.3%
- viability, T/C [13]: 83.3%
- viability, T/C [14]: 105%
- viability, T/C [15]: 98%
- viability, T/C [16]: 87.8%
- viability, T/C [17]: 89.7%
- viability, T/C [18]: 73.3%
- viability, T/C [19]: 94.1%
- viability, T/C [20]: 103%
- viability, T/C [21]: 86.5%
- viability, T/C [22]: 106%
- viability, T/C [23]: 107%
- viability, T/C [24]: 74.8%
- viability, T/C [25]: 107%
- viability, T/C [26]: 100%
- viability, T/C [27]: 99.1%
- viability, T/C [28]: 93.1%
- viability, T/C [29]: 89.1%
- viability, T/C [30]: 75.5%
- viability, T/C [31]: 101%
- viability, T/C [32]: 99.7%
- viability, T/C [33]: 107%
- viability, T/C [34]: 101%
- viability, T/C [35]: 109%
- viability, T/C [36]: 83.6%

SMILES: O=c1[nH]cc(F)c(=O)[nH]1 + COC1C(OC(N)=O)C(O)C(Oc2ccc3c(O)c(NC(=O)c4ccc(O)c(CC=C(C)C)c4)c(=O)oc3c2C)OC1(C)C
- IC50 (second compound 0.0316 µM): > 10 µM
- IC50 (second compound 0.1 µM): > 10 µM
- IC50 (second compound 0.316 µM): > 10 µM
- IC50 (second compound 1 µM): 9.82 µM
- IC50 (second compound 3.16 µM): 9.69 µM
- IC50 (second compound 10 µM): 9.8 µM
- viability, T/C [1]: 88%
- viability, T/C [2]: 100%
- viability, T/C [3]: 104%
- viability, T/C [4]: 106%
- viability, T/C [5]: 70%
- viability, T/C [6]: 49.9%
- viability, T/C [7]: 92%
- viability, T/C [8]: 105%
- viability, T/C [9]: 104%
- viability, T/C [10]: 100%
- viability, T/C [11]: 70%
- viability, T/C [12]: 52%
- viability, T/C [13]: 104%
- viability, T/C [14]: 108%
- viability, T/C [15]: 114%
- viability, T/C [16]: 119%
- viability, T/C [17]: 69.3%
- viability, T/C [18]: 49.6%
- viability, T/C [19]: 109%
- viability, T/C [20]: 111%
- viability, T/C [21]: 86.2%
- viability, T/C [22]: 102%
- viability, T/C [23]: 69%
- viability, T/C [24]: 49.8%
- viability, T/C [25]: 102%
- viability, T/C [26]: 115%
- viability, T/C [27]: 109%
- viability, T/C [28]: 107%
- viability, T/C [29]: 66.9%
- viability, T/C [30]: 49.1%
- viability, T/C [31]: 117%
- viability, T/C [32]: 97.2%
- viability, T/C [33]: 108%
- viability, T/C [34]: 105%
- viability, T/C [35]: 73.5%
- viability, T/C [36]: 49.6%

SMILES: O=C(c1cc(Cc2n[nH]c(=O)c3ccccc23)ccc1F)N1CCN(C(=O)C2CC2)CC1 + COC1C(OC(N)=O)C(O)C(Oc2ccc3c(O)c(NC(=O)c4ccc(O)c(CC=C(C)C)c4)c(=O)oc3c2C)OC1(C)C
- IC50 (second compound 0.0316 µM): > 10 µM
- IC50 (second compound 0.1 µM): > 10 µM
- IC50 (second compound 0.316 µM): > 10 µM
- IC50 (second compound 1 µM): > 10 µM
- IC50 (second compound 3.16 µM): > 10 µM
- IC50 (second compound 10 µM): > 10 µM
- viability, T/C [1]: 117%
- viability, T/C [2]: 105%
- viability, T/C [3]: 106%
- viability, T/C [4]: 92.3%
- viability, T/C [5]: 123%
- viability, T/C [6]: 66.7%
- viability, T/C [7]: 98.7%
- viability, T/C [8]: 102%
- viability, T/C [9]: 95%
- viability, T/C [10]: 97.3%
- viability, T/C [11]: 119%
- viability, T/C [12]: 63.2%
- viability, T/C [13]: 98.5%
- viability, T/C [14]: 111%
- viability, T/C [15]: 109%
- viability, T/C [16]: 94%
- viability, T/C [17]: 109%
- viability, T/C [18]: 66.1%
- viability, T/C [19]: 90.7%
- viability, T/C [20]: 101%
- viability, T/C [21]: 109%
- viability, T/C [22]: 102%
- viability, T/C [23]: 107%
- viability, T/C [24]: 65.9%
- viability, T/C [25]: 101%
- viability, T/C [26]: 105%
- viability, T/C [27]: 114%
- viability, T/C [28]: 90.1%
- viability, T/C [29]: 103%
- viability, T/C [30]: 63.9%
- viability, T/C [31]: 101%
- viability, T/C [32]: 91.6%
- viability, T/C [33]: 101%
- viability, T/C [34]: 115%
- viability, T/C [35]: 126%
- viability, T/C [36]: 66.2%
